Data taken from US11439637B2, “Antiproliferative compounds and bispecific antibody against BCMA and CD3 for combined use” (Celgene Corporation, priority 2018, dated 2022).
“Also recorded” adds a separate entry of the source.

Legend:
[1] = tested on: plasma cell leukemia (PCL) cell line L363; test: Co-cultures of effector T cells and target cells after pretreatment with compounds, bispecific antibody-induced target cell killing (L363); assay type: cell-based, human; details: L363 target cells pretreated with Compound 2 (1 nM) for 72 hours, washed; co-culture 72 hours, E:T 1:1; vs DMSO
Description: (§1) CD3+ T-cells were isolated from peripheral blood mononuclear cell fractions from healthy donors using magnetic-activated cell sorting. Cells were thawed in RPMI 1640 culture media supplemented with 10% (v/v) fetal bovine serum (FBS), non-essential amino acids and sodium pyruvate. All cell cultures and cell treatments were performed in a 37° C., 5% CO2 incubator for time periods as indicated. T-cells were then labeled with CFSE (carboxyfluorescein succinimidyl ester) according to the manufacturer's instructions, and allowed to recover overnight in the presence of 1 ng/mL human IL-7. T-cells were treated with DMSO (control) or Compound 2 as single agent for 16 hours before co-culture. The multiple myeloma H929 and OPM-2 cell lines or the plasma cell leukemia (PCL) cell line L363 were labeled with CellTrace™ Violet, then pretreated with DMSO (control) or Compound 2 as a single agent for 72 hours. T-cells and target cells were then washed to remove compounds and co-cultured in the presence of increasing concentrations of a bispecific antibody specifically binding to human B cell maturation antigen (BCMA) and to human CD3ε (CD3) as provided herein, for 72 hours, at different effector T-cell (E) to target cell (T) ratios. […]

[2] = tested on: multiple myeloma H929 cell line; test: Co-cultures of effector T cells and target cells with concurrent compound treatments; assay type: cell-based, human; details: concurrent exposure to Compound 2 (1 nM) for 72 hours, T-cells of three donors, E:T 1:3, vs DMSO
Description: CD3+ T-cells were isolated from peripheral blood mononuclear cell fractions from three different healthy donors (donors A, B and C) using magnetic-activated cell sorting. Cells were thawed in RPMI 1640 culture media supplemented with 10% (v/v) FBS, non-essential amino acids, sodium pyruvate and penicillin/streptomycin. All cell cultures and treatments were performed in a 37° C., 5% CO2 incubator for time periods as indicated. T-cells were then labeled with CFSE (carboxyfluorescein succinimidyl ester) according to the manufacturer's instructions, and allowed to recover overnight in the presence of 1 ng/mL human IL-7. The multiple myeloma H929 cell line was labeled with CellTrace™ Violet, and allowed to recover overnight. T-cells and target cells were then washed and co-cultured in the presence of increasing concentrations of bispecific antibody specifically binding to human B cell maturation antigen (BCMA) and to human CD3ε (CD3) provided herein, for 72 hours, at a fixed effector T-cell (E) to target cell (T) ratio of 1:3. Co-cultures in the presence of bispecific antibody were performed in the presence of DMSO (control) or Compound 2. Cells were collected at the end of co-culture for analysis of target cell apoptosis and necrosis by flow cytometry using APC Annexin V Apoptosis Detection Kit with 7-AAD.

[3] = tested on: multiple myeloma H929 cell line; test: Co-cultures of effector T cells and target cells after pretreatment with compounds, bispecific antibody-induced target cell killing (H929); assay type: cell-based, human; details: H929 target cells pretreated with Compound 2 (1 nM) for 72 hours, washed; co-culture 72 hours, E:T 1:3; vs DMSO
Description: as §1

[4] = tested on: lenalidomide-resistant multiple myeloma cell line H929-1051; test: Co-cultures of effector T cells and lenalidomide-resistant multiple myeloma target cells after pretreatment with compounds; assay type: cell-based, human; details: H929-1051 target cells pretreated 72 hours with Compound 2 (1 nM) or pomalidomide (100 nM), washed; co-culture 72 hours, E:T 1:3; vs DMSO
Text: Co-cultures of effector T cells (E) and lenalidomide-resistant multiple myeloma target cells (T) after pretreatment with compounds. CD3+ T-cells were isolated from peripheral blood mononuclear cell fractions from three different healthy donors (donors D, E and F) using magnetic-activated cell sorting. Cells were thawed in RPMI 1640 culture media supplemented with 10% (v/v) fetal bovine serum (FBS), non-essential amino acids, sodium pyruvate and penicillin/streptomycin. All cell cultures and cell treatments were performed in a 37° C., 5% CO2 incubator for time periods as indicated. T-cells were then labeled with CFSE (carboxyfluorescein succinimidyl ester) according to the manufacturer's instructions, and allowed to recover overnight in the presence of 1 ng/mL human IL-7. The lenalidomide-resistant multiple myeloma cell line H929-1051 was generated by long-term culture in the presence of increasing concentrations of lenalidomide, as previously described (Ghandi et al. Br. J. Haematol. 2014 January; 164(2):233-44) using methods described (Lopez-Girona et al. Leukemia. 2012 November; 26(11):2326-35). H929-1051 cells were labeled with CellTrace™ Violet, then pretreated with DMSO (control), pomalidomide, or Compound 2 as a single agent for 72 hours. T-cells and target cells were then washed to remove compounds and co-cultured in the presence of increasing concentrations of the bispecific antibody specifically binding to human B cell maturation antigen (BCMA) and to human CD3ε (CD3) as provided herein, for 72 hours, at a fixed effector T-cell (E) to target cell (T) ratio of 1:3. The cells were collected at the end of co-culture for analysis of target cell apoptosis and necrosis by flow cytometry using APC Annexin V Apoptosis Detection Kit with 7-AAD, following the manufacturer's directions (BioLegend).

[5] = tested on: multiple myeloma OPM-2 cell line; test: Co-cultures of effector T cells and target cells after pretreatment with compounds, cytotoxicity assays with OPM-2 cells; assay type: cell-based, human; details: E:T 1:5
Description: CD3+ T-cells were isolated from peripheral blood mononuclear cell fractions from healthy donors using magnetic-activated cell sorting. Cells were thawed in RPMI 1640 culture media supplemented with 10% (v/v) fetal bovine serum (FBS), non-essential amino acids and sodium pyruvate. All cell cultures and cell treatments were performed in a 37° C., 5% CO2 incubator for time periods as indicated. T-cells were then labeled with CFSE (carboxyfluorescein succinimidyl ester) according to the manufacturer's instructions, and allowed to recover overnight in the presence of 1 ng/mL human IL-7. T-cells were treated with DMSO (control) or Compound 2 as single agent for 16 hours before co-culture. The multiple myeloma H929 and OPM-2 cell lines or the plasma cell leukemia (PCL) cell line L363 were labeled with CellTrace™ Violet, then pretreated with DMSO (control) or Compound 2 as a single agent for 72 hours. T-cells and target cells were then washed to remove compounds and co-cultured in the presence of increasing concentrations of a bispecific antibody specifically binding to human B cell maturation antigen (BCMA) and to human CD3ε (CD3) as provided herein, for 72 hours, at different effector T-cell (E) to target cell (T) ratios. The cells were collected at the end of co-culture for analysis of target cell apoptosis and necrosis by flow cytometry using APC Annexin V Apoptosis Detection Kit with 7-AAD, following the manufacturer's directions (BioLegend).

[6] = tested on: acute myeloid leukemia (AML); details: administered alone; cited from earlier work
[7] = combination of effector T-cell pretreatment and target cell pretreatment with Compound 2 (1 nM)
[8] = either effector T-cells (16 hours) or target cells (72 hours) alone pretreated with Compound 2 (1 nM)

N#Cc1ccc(N2CCN(Cc3ccc(COc4cccc5c4CN([C@H]4CCC(=O)NC4=O)C5=O)cc3)CC2)c(F)c1 [Compound 2, (S)-4-(4-(4-(((2-(2,6-dioxopiperidin-3-yl)-1-oxoisoindolin-4-yl)oxy)methyl)benzyl)piperazin-1-yl)-3-fluorobenzonitrile]
potency of the bispecific antibody [1]: significantly increased | maximal efficacy of target cell killing mediated by the bispecific antibody [2]: improved; also recorded: enhances | potency of the bispecific antibody [2]: significantly increased; also recorded: enhances | maximal target cell killing induced by the bispecific antibody [3]: significantly increased | potency of the bispecific antibody [3]: significantly increased | maximal target cell killing induced by the bispecific antibody [4]: increased; also recorded: enhances | potency of the bispecific antibody [4]: increased; also recorded: enhances | efficacy of the bispecific antibody [5, 7]: increase in efficacy | potentiation of the bispecific antibody [5, 7]: greatest potentiation | efficacy of target cell killing by the bispecific antibody [5, 8]: increased | potency of target cell killing by the bispecific antibody [5, 8]: increased

CT-011: anti-PD-1 antibody, a humanized antibody
response in treating acute myeloid leukemia (AML) at relapse [6]: failed to show response

Nc1cccc2c1C(=O)N(C1CCC(=O)NC1=O)C2=O (stereo not shown) [pomalidomide, reference compound]
maximal target cell killing induced by the bispecific antibody [4]: not
